Laboratory results taken from US20230041743A1, “1,8-NAPHTHYRIDIN-2-ONE COMPOUNDS FOR THE TREATMENT OF AUTOIMMUNE DISEASE” (Hoffmann-La Roche Inc., priority 2019, published 2023).

Target: T1, human TLR9 (Homo sapiens, UniProt Q9NR96)
T1 construct: host or cells: HEK293 (HEK-Blue hTLR9)
T1 sequence (Q9NR96 26-1032): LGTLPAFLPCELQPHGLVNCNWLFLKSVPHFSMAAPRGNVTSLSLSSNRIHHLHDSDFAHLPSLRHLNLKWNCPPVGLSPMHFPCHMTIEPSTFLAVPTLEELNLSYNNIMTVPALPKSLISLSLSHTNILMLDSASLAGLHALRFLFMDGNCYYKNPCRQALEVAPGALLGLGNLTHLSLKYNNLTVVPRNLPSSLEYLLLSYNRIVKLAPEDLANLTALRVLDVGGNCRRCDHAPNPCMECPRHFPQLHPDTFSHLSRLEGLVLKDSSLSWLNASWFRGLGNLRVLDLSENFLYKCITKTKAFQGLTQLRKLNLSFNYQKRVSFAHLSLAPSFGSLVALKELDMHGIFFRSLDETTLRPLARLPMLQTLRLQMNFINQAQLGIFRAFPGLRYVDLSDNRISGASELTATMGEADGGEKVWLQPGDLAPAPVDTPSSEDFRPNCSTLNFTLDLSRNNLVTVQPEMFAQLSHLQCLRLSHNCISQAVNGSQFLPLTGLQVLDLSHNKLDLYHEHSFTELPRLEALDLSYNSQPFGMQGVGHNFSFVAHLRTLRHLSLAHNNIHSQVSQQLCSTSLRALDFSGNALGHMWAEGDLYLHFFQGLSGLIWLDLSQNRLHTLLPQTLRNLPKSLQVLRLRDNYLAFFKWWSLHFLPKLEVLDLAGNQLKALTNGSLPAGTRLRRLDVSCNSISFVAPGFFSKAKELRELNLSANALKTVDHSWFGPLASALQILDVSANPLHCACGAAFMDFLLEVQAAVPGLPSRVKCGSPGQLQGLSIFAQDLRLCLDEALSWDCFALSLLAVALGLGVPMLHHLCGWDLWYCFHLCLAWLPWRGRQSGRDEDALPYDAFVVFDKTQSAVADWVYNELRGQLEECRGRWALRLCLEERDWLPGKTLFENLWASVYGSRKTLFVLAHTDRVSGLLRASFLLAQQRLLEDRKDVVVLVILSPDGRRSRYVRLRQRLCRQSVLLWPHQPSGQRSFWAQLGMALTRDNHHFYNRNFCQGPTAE
Experiment: HEK293-Blue-hTLR-9 cells assay (SEAP reporter, ODN2006 stimulation)
Format: cell-based
Settings: HEK293-Blue-hTLR9 cells, ODN2006 ligand, 20 hrs incubation; read-out: HEK/hTLR9 IC50
From the text: HEK293-Blue-hTLR-9 Cells Assay:
A stable HEK293-Blue-hTLR-9 cell line was purchased from InvivoGen (Cat. #: hkb-htlr9, San Diego, Calif., USA). These cells were originally designed for studying the stimulation of human TLR9 by monitoring the activation of NF-κB. A SEAP (secreted embryonic alkaline phosphatase) reporter gene was placed under the control of the IFN-β minimal promoter fused to five NF-κB and AP-1-binding sites. The SEAP was induced by activating NF-κB and AP-1 via stimulating HEK-Blue hTLR9 cells with TLR9 ligands. Therefore the reporter expression was declined by TLR9 antagonist under the stimulation of a ligand, such as ODN2006 (Cat. #: tlrl-2006-1, Invivogen, San Diego, Calif., USA), for incubation of 20 hrs. The cell culture supernatant SEAP reporter activity was determined using QUANTI-Blue™ kit (Cat. #: rep-qb1, Invivogen, San Diego, Calif., USA) at a wavelength of 640 nm, a detection medium that turns purple or blue in the presence of alkaline phosphatase.
HEK293-Blue-hTLR9 cells were incubated at a density of 250,000˜450,000 cells/mL in a volume of 170 μL in a 96-well plate in Dulbecco's Modified Eagle's medium (DMEM) containing 4.5 g/L glucose, 50 U/mL penicillin, […], 2 mM L-glutamine, 10% (v/v) heat-inactivated fetal bovine serum with addition of 20 μL test compound in a serial dilution in the presence of final DMSO at 1% and 10 μL of 20 uM ODN2006 in above DMEM, perform incubation under 37° C. in a CO2 incubator for 20 hrs. Then 20 μL of the supernatant from each well was incubated with 180 μL Quanti-blue substrate solution at 37° C. for 2 h and the absorbance was read at 620˜655 nm using a spectrophotometer. The signaling pathway that TLR9 activation leads to downstream NF-κB activation has been widely accepted, and therefore similar reporter assay was modified for evaluating TLR9 antagonist.

Row | Compound | IC50
1 | C[C@@H]1CN(c2cc(=O)n(C)c3ncccc23)C[C@@H]2c3ccc(N4CC(C)(N)C4)cc3CN12 [Example 1, 4-[(4R,10bS)-8-(3-amino-3-methyl-azetidin-1-yl)-4-methyl-3,4,6,10b-tetrahydro-1H-pyrazino[2,1-a]isoindol-2-yl]-1-methyl-1,8-naphthyridin-2-one] | 262 nM
2 | C[C@@H]1CN(c2cc(=O)n(C)c3ncccc23)C[C@@H]2c3ccc(N4CC[C@@](C)(N)C4)cc3CN12 [Example 4, 4-[(4R,10bS)-8-[(3R)-3-amino-3-methyl-pyrrolidin-1-yl]-4-methyl-3,4,6,10b-tetrahydro-1H-pyrazino[2,1-a]isoindol-2-yl]-1-methyl-1,8-naphthyridin-2-one] | 127 nM
3 | C[C@@H]1CN(c2cc(=O)n(C)c3ncccc23)C[C@@H]2c3ccc(N4CC5CCC(C4)N5)cc3CN12 [Example 21, 4-[(4R,10bS)-8-(3,8-diazabicyclo[3.2.1]octan-3-yl)-4-methyl-3,4,6,10b-tetrahydro-1H-pyrazino[2,1-a]isoindol-2-yl]-1-methyl-1,8-naphthyridin-2-one] | 138 nM
4 | C[C@@H]1CN(c2cc(=O)n(C)c3ncccc23)C[C@@H]2c3ccc(N4CCC[C@@H](N)C4)cc3CN12 [Example 16, 4-[(4R,10bS)-8-[(3R)-3-amino-1-piperidyl]-4-methyl-3,4,6,10b-tetrahydro-1H-pyrazino[2,1-a]isoindol-2-yl]-1-methyl-1,8-naphthyridin-2-one] | 101 nM
5 | C[C@@H]1CN(c2cc(=O)n(C)c3ncccc23)C[C@@H]2c3ccc(N4C[C@@H](N)[C@@H](F)C4)cc3CN12 [Example 7, 4-[(4R,10bS)-8-[(3R,4S)-3-amino-4-fluoro-pyrrolidin-1-yl]-4-methyl-3,4,6,10b-tetrahydro-1H-pyrazino[2,1-a]isoindol-2-yl]-1-methyl-1,8-naphthyridin-2-one] | 247 nM
6 | CO[C@@H]1CN(c2ccc3c(c2)CN2[C@H](C)CN(c4cc(=O)n(C)c5ncccc45)C[C@H]32)C[C@H]1N [Example 5, 4-[(4R,10bS)-8-[(3R,4R)-3-amino-4-methoxy-pyrrolidin-1-yl]-4-methyl-3,4,6,10b-tetrahydro-1H-pyrazino[2,1-a]isoindol-2-yl]-1-methyl-1,8-naphthyridin-2-one] | 257 nM
7 | C[C@@H]1CN(c2cc(=O)n(C)c3ncccc23)C[C@@H]2c3ccc(N4C[C@H]5NCCO[C@@H]5C4)cc3CN12 [Example 6, 4-[(4R,10bS)-8-[(4aR,7aR)-3,4,4a,5,7,7a-hexahydro-2H-pyrrolo[3,4-b][1,4]oxazin-6-yl]-4-methyl-3,4,6,10b-tetrahydro-1H-pyrazino[2,1-a]isoindol-2-yl]-1-methyl-1,8-naphthyridin-2-one] | 197 nM
8 | CO[C@H]1CN(c2ccc3c(c2)CN2[C@H](C)CN(c4cc(=O)n(C)c5ncccc45)C[C@H]32)CC[C@@H]1N [Example 8, 4-[(4R,10bS)-8-[(3S,4S)-4-amino-3-methoxy-1-piperidyl]-4-methyl-3,4,6,10b-tetrahydro-1H-pyrazino[2,1-a]isoindol-2-yl]-1-methyl-1,8-naphthyridin-2-one] | 226 nM
9 | C[C@@H]1CN(c2cc(=O)n(C)c3ncccc23)C[C@@H]2c3ccc([C@H]4C[C@H]5COC[C@@H](C4)N5)cc3CN12 [Example 28A, 4-[(4R,10bS)-4-methyl-8-(endo-3-oxa-9-azabicyclo[3.3.1]nonan-7-yl)-3,4,6,10b-tetrahydro-1H-pyrazino[2,1-a]isoindol-2-yl]-1-methyl-1,8-naphthyridin-2-one] | 153 nM
10 | C[C@@H]1CN(c2cc(=O)n(C)c3ncccc23)C[C@@H]2c3ccc(N4CC5(CNCCO5)C4)cc3CN12 [Example 3, 4-[(4R,10bS)-4-methyl-8-(5-oxa-2,8-diazaspiro[3.5]nonan-2-yl)-3,4,6,10b-tetrahydro-1H-pyrazino[2,1-a]isoindol-2-yl]-1-methyl-1,8-naphthyridin-2-one] | 325 nM
11 | C[C@@H]1CN(c2cc(=O)n(C)c3ncccc23)C[C@@H]2c3ccc(N4CC5(CN(C)C5)C4)cc3CN12 [Example 2, 4-[(4R,10bS)-4-methyl-8-(6-methyl-2,6-diazaspiro[3.3]heptan-2-yl)-3,4,6,10b-tetrahydro-1H-pyrazino[2,1-a]isoindol-2-yl]-1-methyl-1,8-naphthyridin-2-one] | 136 nM
12 | C[C@@H]1CN(c2cc(=O)n(C)c3ncccc23)C[C@@H]2c3ccc(N4CCNCC4)cc3CN12 [Example 12, 4-[(4R,10bS)-4-methyl-8-piperazin-1-yl-3,4,6,10b-tetrahydro-1H-pyrazino[2,1-a]isoindol-2-yl]-1-methyl-1,8-naphthyridin-2-one] | 192 nM
13 | CO[C@H]1CCN(c2ccc3c(c2)CN2[C@H](C)CN(c4cc(=O)n(C)c5ncccc45)C[C@H]32)C[C@@H]1N [Example 9, 4-[(4R,10bS)-8-[(3S,4S)-3-amino-4-methoxy-1-piperidyl]-4-methyl-3,4,6,10b-tetrahydro-1H-pyrazino[2,1-a]isoindol-2-yl]-1-methyl-1,8-naphthyridin-2-one] | 266 nM

The remaining lines, values ahead:

Row | IC50 | Compound
14 | 99 nM | C[C@@H]1CN(c2cc(=O)n(C)c3ncccc23)C[C@@H]2c3ccc([C@H]4CC[C@H](N5CCOCC5)CC4)cc3CN12 [Example 27A, 4-[(4R,10bS)-4-methyl-8-(trans-4-morpholinocyclohexyl)-3,4,6,10b-tetrahydro-1H-pyrazino[2,1-a]isoindol-2-yl]-1-methyl-1,8-naphthyridin-2-one]
15 | 116 nM | C[C@@H]1CN(c2cc(=O)n(C)c3ncccc23)C[C@@H]2c3ccc(N4C[C@@H]5C[C@H]4CN5)cc3CN12 [Example 19, 4-[(4R,10bS)-8-[(1S,4S)-2,5-diazabicyclo[2.2.1]heptan-2-yl]-4-methyl-3,4,6,10b-tetrahydro-1H-pyrazino[2,1-a]isoindol-2-yl]-1-methyl-1,8-naphthyridin-2-one]
16 | 222 nM | C[C@@H]1CNCCN1c1ccc2c(c1)CN1[C@H](C)CN(c3cc(=O)n(C)c4ncccc34)C[C@H]21 [Example 17, 4-[(4R,10bS)-4-methyl-8-[(2R)-2-methylpiperazin-1-yl]-3,4,6,10b-tetrahydro-1H-pyrazino[2,1-a]isoindol-2-yl]-1-methyl-1,8-naphthyridin-2-one]
17 | 105 nM | C[C@@H]1CN(c2cc(=O)n(C)c3ncccc23)C[C@@H]2c3ccc([C@H]4CC[C@@H](N5CCOCC5)CC4)cc3CN12 [Example 27B, 4-[(4R,10bS)-4-methyl-8-(cis-4-morpholinocyclohexyl)-3,4,6,10b-tetrahydro-1H-pyrazino[2,1-a]isoindol-2-yl]-1-methyl-1,8-naphthyridin-2-one]
18 | 124 nM | C[C@@H]1CN(c2cc(=O)n(C)c3ncccc23)C[C@@H]2c3ccc(C4CCCNC4)cc3CN12 (stereo partly drawn) [Example 25, 4-[(4R,10bS)-4-methyl-8-(3-piperidyl)-3,4,6,10b-tetrahydro-1H-pyrazino[2,1-a]isoindol-2-yl]-1-methyl-1,8-naphthyridin-2-one]
19 | 340 nM | CCn1c(=O)cc(N2C[C@@H](C)N3Cc4cc(N5C[C@@H](N)[C@H](OC)C5)ccc4[C@H]3C2)c2cccnc21 [Example 29, 4-[(4R,10bS)-8-[(3R,4R)-3-amino-4-methoxy-pyrrolidin-1-yl]-4-methyl-3,4,6,10b-tetrahydro-1H-pyrazino[2,1-a]isoindol-2-yl]-1-ethyl-1,8-naphthyridin-2-one]
